According to patent publication US20090239760A1, “Method for the Identification of New Leads for Drug Candidates” (UNIVERSITY OF BASEL, priority 2006, published 2009):
pKd: −log10 of the molar value.

What was measured:
[1] = molecular target: T1, Fc-MAG(d1-3) (Mus musculus, UniProt P20917); assay: surface plasmon resonance (BIACORE 3000), Fc-MAG(d1-3) immobilized by protein A; type: binding, murine
T1 sequence (P20917 20-325 limits assumed): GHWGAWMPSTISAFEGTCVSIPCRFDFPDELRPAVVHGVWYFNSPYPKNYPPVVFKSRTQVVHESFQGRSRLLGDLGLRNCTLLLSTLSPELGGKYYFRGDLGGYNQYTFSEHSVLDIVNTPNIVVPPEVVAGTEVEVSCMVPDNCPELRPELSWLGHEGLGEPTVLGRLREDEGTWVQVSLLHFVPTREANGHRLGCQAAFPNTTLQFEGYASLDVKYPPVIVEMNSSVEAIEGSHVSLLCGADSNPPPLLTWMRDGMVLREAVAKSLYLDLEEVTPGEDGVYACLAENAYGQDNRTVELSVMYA
Description: For the in situ click chemistry experiment (Lewis, 2002; Bourne, 2004; […], 2005), Fc-MAG(d1-3) (Crocker, 1996) (8.77 μM) was incubated with a mixture of the four substituted first-site ligands 14a-d (each 40 μM) and the two substituted second-site ligands 22, 26 (each 800 μM) in phosphate buffer (pH 7.4) at 37° C. for 24 h. The different concentrations of the first- and second-site ligands reflect their affinities in the low micro- and millimolar range. […] To exclude that false positives are formed during incubation, two control experiments were performed. In the first, MAG was replaced by bovine serum albumin. In the second, no protein was added. In both experiments, no triazole formation could be observed. The protein included the Fc portion of human immunoglobulin IgG1 and the three N-terminal domains of murine MAG (for its preparation, see Crocker & Kelm (1996)). […] The KD analyses were performed at 25° C. on a BIACORE 3000 surface plasmon resonance-based optical biosensor (Biacore AB, Uppsala, Sweden). Protein A (Sigma, Basel) was immobilized onto a CM5 sensor chip (Biacore AB, research grade) using standard amine coupling. All data processing and equilibrium binding constant determinations were accomplished with Scrubber© (BioLogic Software, Campbell, Australia, Version 1.1g). […] The equilibrium binding constants KD were calculated using a 1:1 binding model. […]

[2] = molecular target: T2, MAG (Mus musculus, UniProt P20917); assay: NMR second-site screening with spin-labeled first-site ligand 2 (Jahnke method); conditions: H-NMR in the presence of spin-labeled analogue 2; indicates binding proximate (radius of 15 to 20 Å) to the Tempo spin label
T2 sequence (P20917 20-627): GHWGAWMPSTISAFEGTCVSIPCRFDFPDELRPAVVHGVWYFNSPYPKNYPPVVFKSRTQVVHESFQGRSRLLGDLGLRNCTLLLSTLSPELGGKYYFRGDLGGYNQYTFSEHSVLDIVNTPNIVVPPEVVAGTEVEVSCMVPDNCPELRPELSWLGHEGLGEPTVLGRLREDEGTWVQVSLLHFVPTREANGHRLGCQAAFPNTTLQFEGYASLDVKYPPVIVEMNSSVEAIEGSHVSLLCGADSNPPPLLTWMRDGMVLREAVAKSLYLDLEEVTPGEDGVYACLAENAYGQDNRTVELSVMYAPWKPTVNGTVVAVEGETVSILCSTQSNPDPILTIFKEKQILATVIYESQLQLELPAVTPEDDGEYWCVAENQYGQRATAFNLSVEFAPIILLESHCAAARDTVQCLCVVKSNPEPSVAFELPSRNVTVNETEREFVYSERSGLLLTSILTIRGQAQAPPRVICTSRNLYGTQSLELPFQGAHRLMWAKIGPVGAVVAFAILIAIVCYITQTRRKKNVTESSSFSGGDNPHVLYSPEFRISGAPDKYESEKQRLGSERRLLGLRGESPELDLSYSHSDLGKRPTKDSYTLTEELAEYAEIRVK
Description: Second-site ligands that are affected by the initial lead can be detected in different ways, including NMR based methods that involve, e.g. spin labeling the initial lead. […] Jahnke's method detects the paramagnetic relaxation enhancement on a second ligand caused by a spin-labeled first ligand. The method allows for the detection of “true” second-site ligands, which are ligands that bind to the target (1) simultaneously with and (2) in the proximity of the first ligand (“second-site screening”).
Members of a library composed of 60 divers or sub-libraries thereof, which are drug-like, soluble and synthetically easily available fragments (“second-site ligands”) binding to the target protein were identified based on their shorter relaxation time in H-NMR.

Row | affinity ([1]; surface plasmon resonance experiment) | paramagnetic relaxation enhancement [2] | pKd ([1]; SPR, Fc-MAG(d1-3) immobilized by protein A, 25° C., 1:1 binding model) | SMILES
1 | low millimolar range | enhanced relaxation was observed | – | O=[N+]([O-])c1ccc2[nH]ccc2c1 [compound 15, 5-nitro-1H-indole]
2 | – | – | 6.72 | CC(=O)NC1C(O)CC(OCc2cn(CCCc3c[nH]c4ccc([N+](=O)[O-])cc34)nn2)(C(=O)O)OC1C(O)C(O)CNC(=O)c1ccccc1 [compound 27, 1-(5-nitro-1H-indol-3-yl-propyl)-4-{sodium [5-acetamido-9-benzamido-3,5,9-trideoxy-D-glycero-α-D-galacto-2-nonulopyranosynate-2-O-yl}-methyl-1,2,3]-triazole]
